Measurements as given in PMC11480954, “Molecular determinants of resurgent sodium currents mediated by Navβ4 peptide and A-type FHFs” (Frontiers in Molecular Neuroscience, 2024).
“And” between values parts separate entries of the source, which are not always exact repeats. Equal values may be shown once. Read-outs that look alike come from different tables or passages of the source. No end group written: not given here.

Legend:
Nav1.7 N395K = conditions: ref Sheets et al., 2007; cited from earlier work
Text: The receptor site of local anesthetics is formed by multiple residues within DIS6, DIIIS6 and DIVS6. […] Several studies have implicated F1764 and Y1771 in Nav1.2 (corresponding to F1737 and Y1744 in Nav1.7) as playing a major effect on local anesthetics-induced inhibition of VGSCs ([Ragsdale et al., 1996]). We recently reported that mutation of an asp ...

human Nav1.7 = experiment: Steady-state activation and inactivation, WT Nav1.7; format: cell-based; conditions: HEK293, 100 μM intracellular, mean ± S.E., scramble n = 6, Navβ4 peptide n = 8
Experimental: (§1) HEK293 cells and ND7/23 cells were grown under standard tissue culture conditions (5% CO2 and 37°C) in DMEM supplemented with 10% FBS, 1% penicillin and 1% streptomycin. Using Invitrogen Lipofectamine 2000, human Nav1.7 R1599P (rpNav1.7) and the mutant constructs were transiently co-transfected with Navβ1 and Navβ2 into HEK293 cells. The constructs human Nav1.8 and mutants were transiently co-transfected with FHF2B or FHF4A into ND7/23 cells. The lipofectamine-DNA mixture was added to the cell culture medium and left for 3 h after which the cells were washed with fresh medium. Cells with green fluorescent protein fluorescence were selected for whole-cell patch-clamp recordings 36–72 h after transfection.
Whole-cell voltage-clamp recordings were performed at room temperature (~21°C) using an EPC-10 amplifier and the Pulse program (HEKA Electronics). […]
(§2) Families of sodium currents were induced by 50-ms depolarizing steps to various potentials ranging from −120 (or −100) to +40 mV in 5-mV increments. The conductance was calculated using the equation G(Nav) = I/(V - Vrev) in which I, V, and Vrev represent inward current value, membrane potential, and reversal potential, respectively. […]

human Nav1.8 [1] = experiment: Gating properties (steady-state activation, inactivation, INaP), Nav1.8; format: cell-based; conditions: Nav1.8 + FHF2B, ND7/23; 1 mM; held at −100 mV; scramble n = 8, FHF4A peptide n = 10; p > 0.05
Experimental: as §1
(§3) Whole-cell voltage-clamp recordings were performed at room temperature (~21°C) using an EPC-10 amplifier and the Pulse program (HEKA Electronics). Fire-polished electrodes (0.7–1.0 MΩ) were fabricated from 1.7 mm capillary glass using a P-97 puller (Sutter Instruments), and the tips were coated with sticky wax (KerrLab) to reduce electrode capacitance and enable increased series resistance compensation. The pipette solution contained (in mM) 140 CsF, 1.1 EGTA, 10 NaCl, and 10 HEPES, pH 7.3. The bathing solution was (in mM) 130 mM NaCl, 30 mM TEA chloride, 1 mM MgCl2, 3 mM KCl, 1 mM CaCl2, 10 mM HEPES, and 10 mM d-glucose, pH 7.3 (adjusted with NaOH). […] The offset potential was zeroed before contacting the cell. After establishing the whole-cell recording configuration, the resting potential was held at −120 or −100 mV for 5 min to allow adequate equilibration between the micropipette solution and the cell interior. Linear leak subtraction, based on resistance estimates from four to five hyperpolarizing pulses applied before the depolarizing test potential, was used for all voltage clamp recordings. Membrane currents were usually filtered at 5 kHz and sampled at 20 kHz. […] Voltage errors were minimized using 80–95% series resistance compensation, and the capacitance artifact was canceled using the computer-controlled circuitry of the patch clamp amplifier. […] The concentration-dependent curves were fitted to a hill equation: Y = Bottom + (Top-Bottom)/(1 + 10^((LogEC50-X)*HillSlope)).
Families of sodium currents were induced by 50-ms depolarizing steps to various potentials ranging from −120 (or −100) to +40 mV in 5-mV increments. The conductance was calculated using the equation G(Nav) = I/(V - Vrev) in which I, V, and Vrev represent inward current value, membrane potential, and reversal potential, respectively.
Voltage dependence of steady-state inactivation was estimated using a standard double pulse protocol in which sodium currents were induced by a 50-ms depolarizing potential of 0 mV following a 500-ms prepulse at potentials that ranged from −150 to +10 mV with a 10-mV increment. Currents were plotted as a fraction of the maximum peak current. To obtain the midpoint voltages (V1/2) and slope factor (k), the curves of both steady-state activation and inactivation were fitted to a Boltzmann function.

human Nav1.8 [2] = experiment: INaR, Nav1.8 co-expressed with FHF2B; format: cell-based; conditions: Nav1.8 + FHF2B, ND7/23, 1 mM
Experimental: as §1, §3
(§4) INaR: INaR was elicited by repolarizing voltage steps from +20 to −80 mV for 100 ms (or 200 ms) in −5 mV increments, following a 20-ms depolarizing potential of +30 mV. […] The relative INaR in Nav1.7 and Nav1.8 was calculated by normalizing to the peak transient current elicited at −10 or 0 mV.

[3] = target: T1, human Nav1.7 R1599P (rpNav1.7) (Homo sapiens, UniProt Q15858, R1610P); experiment: Resurgent current (INaR), whole-cell patch clamp, rpNav1.7; format: cell-based
T1 construct: expressed in transfected cells; host or cells: HEK293 cells, transient transfection with pcDNA3.1 construct
T1 sequence (Q15858 1-1977 isoform Q15858-3 R1599P): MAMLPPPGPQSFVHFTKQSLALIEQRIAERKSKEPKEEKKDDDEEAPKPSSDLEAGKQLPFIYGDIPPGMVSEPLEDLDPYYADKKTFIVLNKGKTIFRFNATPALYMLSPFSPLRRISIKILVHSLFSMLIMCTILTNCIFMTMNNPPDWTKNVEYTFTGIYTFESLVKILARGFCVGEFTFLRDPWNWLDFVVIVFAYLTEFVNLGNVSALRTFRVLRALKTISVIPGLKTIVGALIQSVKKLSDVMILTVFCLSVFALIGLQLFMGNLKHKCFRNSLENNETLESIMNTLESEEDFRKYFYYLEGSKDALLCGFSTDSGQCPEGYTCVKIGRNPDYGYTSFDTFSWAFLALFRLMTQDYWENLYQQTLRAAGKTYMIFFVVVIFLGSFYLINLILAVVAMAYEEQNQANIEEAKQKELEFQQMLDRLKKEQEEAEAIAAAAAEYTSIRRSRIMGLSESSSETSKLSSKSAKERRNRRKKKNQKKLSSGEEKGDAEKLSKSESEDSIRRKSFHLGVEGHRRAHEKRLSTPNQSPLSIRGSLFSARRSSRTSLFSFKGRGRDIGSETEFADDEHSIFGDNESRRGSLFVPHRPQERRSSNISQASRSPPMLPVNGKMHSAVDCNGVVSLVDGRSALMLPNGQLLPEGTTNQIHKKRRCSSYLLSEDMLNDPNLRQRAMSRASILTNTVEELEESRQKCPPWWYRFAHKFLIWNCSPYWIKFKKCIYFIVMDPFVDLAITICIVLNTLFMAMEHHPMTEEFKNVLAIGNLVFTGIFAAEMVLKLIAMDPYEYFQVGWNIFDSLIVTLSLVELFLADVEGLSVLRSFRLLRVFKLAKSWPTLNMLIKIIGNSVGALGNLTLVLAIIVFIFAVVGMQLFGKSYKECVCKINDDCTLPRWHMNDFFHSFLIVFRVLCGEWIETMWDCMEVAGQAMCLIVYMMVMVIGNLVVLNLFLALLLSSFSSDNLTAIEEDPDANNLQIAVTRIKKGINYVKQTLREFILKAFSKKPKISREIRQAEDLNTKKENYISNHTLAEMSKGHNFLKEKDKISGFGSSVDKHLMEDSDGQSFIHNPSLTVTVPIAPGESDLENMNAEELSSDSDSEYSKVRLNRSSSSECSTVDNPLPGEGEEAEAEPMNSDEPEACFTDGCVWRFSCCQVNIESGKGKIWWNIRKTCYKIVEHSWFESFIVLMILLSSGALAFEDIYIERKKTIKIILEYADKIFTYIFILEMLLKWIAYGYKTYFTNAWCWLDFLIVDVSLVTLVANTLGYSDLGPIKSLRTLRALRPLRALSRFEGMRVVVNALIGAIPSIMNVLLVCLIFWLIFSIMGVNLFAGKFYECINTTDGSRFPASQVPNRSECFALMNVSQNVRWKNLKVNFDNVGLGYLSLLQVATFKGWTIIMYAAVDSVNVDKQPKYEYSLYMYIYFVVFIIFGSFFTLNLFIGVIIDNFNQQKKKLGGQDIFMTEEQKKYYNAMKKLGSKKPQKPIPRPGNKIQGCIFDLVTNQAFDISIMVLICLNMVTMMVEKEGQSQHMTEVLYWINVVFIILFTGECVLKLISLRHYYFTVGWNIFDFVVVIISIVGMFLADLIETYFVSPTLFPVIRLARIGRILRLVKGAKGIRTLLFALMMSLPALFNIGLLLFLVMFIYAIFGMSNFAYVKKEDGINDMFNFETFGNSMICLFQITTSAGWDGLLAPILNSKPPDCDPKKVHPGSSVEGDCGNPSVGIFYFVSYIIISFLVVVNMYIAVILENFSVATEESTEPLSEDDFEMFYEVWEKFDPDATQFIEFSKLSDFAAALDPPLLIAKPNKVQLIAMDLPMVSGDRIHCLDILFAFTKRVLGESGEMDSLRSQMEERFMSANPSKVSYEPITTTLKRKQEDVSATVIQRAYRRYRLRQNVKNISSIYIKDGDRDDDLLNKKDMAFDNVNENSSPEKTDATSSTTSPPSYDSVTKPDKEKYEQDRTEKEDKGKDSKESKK
T1 sequence (Q07699 19-218 partner): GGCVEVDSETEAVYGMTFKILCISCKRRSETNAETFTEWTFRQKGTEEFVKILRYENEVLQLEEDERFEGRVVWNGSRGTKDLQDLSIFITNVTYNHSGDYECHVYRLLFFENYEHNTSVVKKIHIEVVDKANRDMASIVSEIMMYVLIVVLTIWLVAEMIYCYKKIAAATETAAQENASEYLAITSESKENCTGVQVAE
T1 sequence (O60939 30-215 partner): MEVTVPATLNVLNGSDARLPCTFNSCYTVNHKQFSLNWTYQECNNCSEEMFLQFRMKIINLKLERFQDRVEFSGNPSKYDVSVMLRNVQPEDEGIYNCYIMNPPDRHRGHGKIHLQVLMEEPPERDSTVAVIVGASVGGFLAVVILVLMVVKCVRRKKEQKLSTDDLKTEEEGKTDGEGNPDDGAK
Experimental: as §1
(§5) Whole-cell voltage-clamp recordings were performed at room temperature (~21°C) using an EPC-10 amplifier and the Pulse program (HEKA Electronics). Fire-polished electrodes (0.7–1.0 MΩ) were fabricated from 1.7 mm capillary glass using a P-97 puller (Sutter Instruments), and the tips were coated with sticky wax (KerrLab) to reduce electrode capacitance and enable increased series resistance compensation. The pipette solution contained (in mM) 140 CsF, 1.1 EGTA, 10 NaCl, and 10 HEPES, pH 7.3. The bathing solution was (in mM) 130 mM NaCl, 30 mM TEA chloride, 1 mM MgCl2, 3 mM KCl, 1 mM CaCl2, 10 mM HEPES, and 10 mM d-glucose, pH 7.3 (adjusted with NaOH). […] The offset potential was zeroed before contacting the cell. After establishing the whole-cell recording configuration, the resting potential was held at −120 or −100 mV for 5 min to allow adequate equilibration between the micropipette solution and the cell interior. […]
as §4

[4] = target: T1, human Nav1.7 R1599P (rpNav1.7); experiment: Long-term inactivation of rpNav1.7; format: cell-based; conditions: rpNav1.7, HEK293; 1 mM; six 16-ms pulses of −10 mV from −100 mV, 40-ms interpulse; scramble n = 6, FHF4A peptide n = 5; p < 0.0001
[5] = target: T1, human Nav1.7 R1599P (rpNav1.7); experiment: Gating properties (steady-state activation, inactivation, INaP), rpNav1.7; format: cell-based
Experimental: as §1, §5, §2

Purkinje neurons = conditions: ref White et al., 2019, cited from earlier work
Text: Next, we investigated if FHF4A, another INaR mediator reported recently ([White et al., 2019]; [Xiao et al., 2022]), shares the receptor site in VGSCs with Navβ4 peptide.

VGSC α-subunits = conditions: heterologous co-expression with VGSC α-subunits; no reference given; cited from earlier work
Text: FHF4A could still induce INaR from the F1710K channel (Figure 10A), but the average INaR amplitude at −20 mV is only 2.0% ± 0.2% of the peak transient current, which is less than one-half of the value from WT Nav1.8 (p < 0.0001). ... || The role of Navβ4 in INaR generation remains controversial. […] [Bant and Raman (2010)] reported that siRNA induced knock-down of Navβ4 reduced INaR generation in cultured cerebellar granular neurons by roughly 60%. […] Furthermore, Scn4b knock-out in mice has produced variable effects on INaR. In striatal neurons, Scn4b kno ...

CCN(CC)CC(=O)Nc1c(C)cccc1C [lidocaine]
effect of N395K on lidocaine inhibition of Nav1.7 (Nav1.7 N395K): attenuates the inhibitory effects of lidocaine on Nav1.7

KAREAQRASRAIEQLRSAKI [scrambled peptide, scrambled control peptide]
V1/2(activation), WT Nav1.7 (human Nav1.7; p < 0.01): −29.3 ± 1.6 mV | V1/2(inactivation), WT Nav1.7 (human Nav1.7; p < 0.05): −79.7 ± 1.7 mV | V1/2 (activation), Nav1.8, Figure 6 (human Nav1.8 [1]): −10.0 ± 2.4 mV | V1/2 (inactivation), Nav1.8, Figure 6 (human Nav1.8 [1]): −44.5 ± 2.1 mV | INaR with scrambled peptide, Nav1.8 (human Nav1.8 [2]): failed to produce INaR | INaR elicited with scrambled peptide ([3]; Nav1.7 and rpNav1.7 (Figures 1A,B), HEK293, 100 μM intracellular): no INaR was elicited | fraction of the current elicited at the 6th pulse [4]: 0.87 ± 0.08 | Inactivation (V1/2), rpNav1.7 ([5]; HEK293, 100 μM intracellular, mean ± S.E., scramble n = 5, Navβ4 peptide n = 9, p < 0.05): −75.0 ± 1.5 mV | Activation (V1/2), rpNav1.7 ([5]; HEK293, 100 μM intracellular, mean ± S.E., scramble n = 6, Navβ4 peptide n = 9, p < 0.01): −27.0 ± 1.9 mV

KKLITFILKKTREK [Navβ4 peptide]
average INaR amplitude elicited at −30 mV ([3]; rpNav1.7 + Navβ1 + Navβ2, HEK293, 100 μM peptide intracellular, measured after 3.0 ms into repolarization, ~21°C, mean ± S.E., n = 14): 15.7% ± 1.1% | EC50 ([3]; rpNav1.7, HEK293, Hill equation, peptide in intracellular solution (10 μM – 1 mM), each data point from 3 to 14 cells, read-out: EC50 for INaR generation): 61.8 ± 1.3 µM | INaP, rpNav1.7 ([5]; end of 50-ms pulse of −10 mV, normalized to peak transient current, 100 μM Navβ4 peptide, n = 9): 7.1% ± 3.0% and 7.1 ± 3.0 (9) %

peptide derived from the sequence FHF4A K50 – R63: a peptide derived from the sequence FHF4A K50 – R63 (KVRIFGLKKRRLRR; FHF4A; UniProt Q92915 50-63, looked up, fragment)
INaR in Purkinje neurons (Purkinje neurons): INaR was also reconstituted in Purkinje neurons | INaR in Purkinje neurons (Purkinje neurons; listed as short peptide derived from this segment): induce robust Nav1.6 INaR in Purkinje neurons

substitution of the 7^th residue leucine with serine: FHF4A K50 – R63 peptide with substitution of the 7th residue leucine with serine (KVRIFGSKKRRLRR; FHF4A peptide K50-R63; UniProt Q92915 50-63, looked up, variant L56S)
INaR in Purkinje neurons (Purkinje neurons): no longer induce INaR

B1: full-length Navβ4: full-length Navβ4 sodium channel auxiliary subunit (protein, UniProt Q8IWT1 1-228, looked up)
chain: MPGAGDGGKAPARWLGTGLLGLFLLPVTLSLEVSVGKATDIYAVNGTEILLPCTFSSCFGFEDLHFRWTYNSSDAFKILIEGTVKNEKSDPKVTLKDDDRITLVGSTKEKMNNISIVLRDLEFSDTGKYTCHVKNPKENNLQHHATIFLQVVDRLEEVDNTVTLIILAVVGGVIGLLILILLIKKLIIFILKKTREKKKECLVSSSGNDNTENGLPGSKAEEKPPSKV
modifications: full-length
notes: full-length Navβ4 sodium channel auxiliary subunit
INaR with full-length Navβ4 (VGSC α-subunits): fails to reconstitute INaR in heterologous systems
